Source: PubChem BioAssay AID330 (DTP/NCI, 2004)
Values joined by “and” are separate entries in the source; they are usually repeats but may differ in a detail not shown here. Equal entries are not always repeated. Inconclusive results and toxic doses are left out. The calls were made as follows: active = survival T/C of 150% or more; inactive = T/C below 125% in these data.

Test system: P388 leukemia ip, CD2F1 mice, survival T/C
Experiment: NCI In Vivo Anticancer Drug Screen. Data for tumor model P388 Leukemia (intraperitoneal) in CD2F1 (CDF1) mice
Details: endpoint: median survival time, higher = longer survival
How it was run: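 Mice carrying the transplanted tumor received test compound or vehicle. Survival was recorded in each group, and the value is the treated-group measurement divided by that of the vehicle-treated control group.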

[1] = dose: 60.0 mg/kg/injection, schedule: Q01DX005 (ip), vehicle: saline with Tween-80
[2] = dose: 120.0 mg/kg/injection, schedule: Q01DX005 (ip), vehicle: saline with Tween-80
[3] = dose: 240.0 mg/kg/injection, schedule: Q01DX005 (ip), vehicle: saline with Tween-80
[4] = dose: 50.0 mg/kg/injection, schedule: Q01DX005 (ip), vehicle: saline with Tween-80
[5] = dose: 100.0 mg/kg/injection, schedule: Q01DX005 (ip), vehicle: saline with Tween-80
[6] = dose: 50.0 mg/kg/injection, schedule: Q01DX005 (ip), vehicle: Klucel (hydroxypropylcellulose) (HPC)
[7] = dose: 100.0 mg/kg/injection, schedule: Q01DX005 (ip), vehicle: Klucel (hydroxypropylcellulose) (HPC)
[8] = dose: 25.0 mg/kg/injection, schedule: Q01DX005 (ip), vehicle: saline with Tween-80
[9] = dose: 60.0 mg/kg/injection, schedule: Q01DX005 (ip), vehicle: Klucel (hydroxypropylcellulose) (HPC)
[10] = dose: 120.0 mg/kg/injection, schedule: Q01DX005 (ip), vehicle: Klucel (hydroxypropylcellulose) (HPC)

Measured: T/C

CCc1c(O)sc2c(c1=O)C(=NCC(C)C)CC(C)(C)N2
inactive: dose: 50.0 mg/kg/injection, schedule: Q01DX005 (ip), vehicle: saline 86 % of control | dose: 100.0 mg/kg/injection, schedule: Q01DX005 (ip), vehicle: saline 94 % of control | dose: 200.0 mg/kg/injection, schedule: Q01DX005 (ip), vehicle: saline 97 % of control

O=S(=O)(c1ccccc1)C1CC=C(c2ccccc2)CNC1 (stereo not given)
inactive: dose: 50.0 mg/kg/injection, schedule: Q01DX001 (ip), vehicle: Klucel (hydroxypropylcellulose) (HPC) 99 % of control | dose: 100.0 mg/kg/injection, schedule: Q01DX001 (ip), vehicle: Klucel (hydroxypropylcellulose) (HPC) 98 % of control | dose: 200.0 mg/kg/injection, schedule: Q01DX001 (ip), vehicle: Klucel (hydroxypropylcellulose) (HPC) 98 % of control | dose: 400.0 mg/kg/injection, schedule: Q01DX001 (ip), vehicle: Klucel (hydroxypropylcellulose) (HPC) 100 % of control

O=S(=O)(O)N(O)c1ccccc1
inactive: dose: 25.0 mg/kg/injection, schedule: Q01DX001 (ip), vehicle: saline 103 % of control and 97 % of control | dose: 50.0 mg/kg/injection, schedule: Q01DX001 (ip), vehicle: saline 113 % of control and 95 % of control | dose: 100.0 mg/kg/injection, schedule: Q01DX001 (ip), vehicle: saline 106 % of control and 124 % of control | dose: 200.0 mg/kg/injection, schedule: Q01DX001 (ip), vehicle: saline 94 % of control

CCOC(=O)c1[nH]cnc1/N=N/N(C)CCO
inactive: dose: 100.0 mg/kg/injection, schedule: Q04DX003 (ip), vehicle: saline with Tween-80 109 % of control | dose: 200.0 mg/kg/injection, schedule: Q04DX003 (ip), vehicle: saline with Tween-80 113 % of control | dose: 400.0 mg/kg/injection, schedule: Q04DX003 (ip), vehicle: saline with Tween-80 118 % of control

Nc1ccc2c(c1)CCCC2=O
inactive: [1] 102 % of control | [2] 93 % of control | [3] 107 % of control

O=C1NC(=O)C(=NC2C(=O)NC(=O)NC2=O)C(=O)N1
inactive: dose: 30.0 mg/kg/injection, schedule: Q01DX005 (ip), vehicle: saline 96 % of control | dose: 60.0 mg/kg/injection, schedule: Q01DX005 (ip), vehicle: saline 92 % of control and 95 % of control | dose: 120.0 mg/kg/injection, schedule: Q01DX005 (ip), vehicle: saline 92 % of control | dose: 240.0 mg/kg/injection, schedule: Q01DX005 (ip), vehicle: saline 86 % of control

Cc1ccc(SCC#CC#CCS(=O)c2ccc(C)cc2)cc1 (stereo not given)
inactive: [4] 110 % of control | [5] 107 % of control

CCc1c(CNc2ccc(Cl)c(Cl)c2)ccc2nc(N)nc(N)c12
inactive: dose: 12.5 mg/kg/injection, schedule: Q01DX005 (ip), vehicle: Klucel (hydroxypropylcellulose) (HPC) 109 % of control

O=C1CCOCCCOCCC(=O)OCCCO1
inactive: [6] 104 % of control | [7] 101 % of control | dose: 200.0 mg/kg/injection, schedule: Q01DX005 (ip), vehicle: Klucel (hydroxypropylcellulose) (HPC) 101 % of control

C1=Nc2ccccc2/C1=C/c1c[nH]c2ccccc12
inactive: [8] 110 % of control | [4] 100 % of control and 103 % of control and 104 % of control | [5] 101 % of control and 103 % of control and 104 % of control | dose: 200.0 mg/kg/injection, schedule: Q01DX005 (ip), vehicle: saline with Tween-80 104 % of control and 118 % of control and 122 % of control | dose: 400.0 mg/kg/injection, schedule: Q01DX005 (ip), vehicle: saline with Tween-80 104 % of control

COC(=O)C1=CO[C@@H](OC2OC(CO)C(O)C(O)C2O)[C@H]2[C@@H]1C=C[C@@]21C=C([C@H](C)OC(=O)/C=C/c2ccc(OC3OC(CO)C(O)C(O)C3O)cc2)C(=O)O1 (stereo not given in full)
inactive: dose: 56.0 mg/kg/injection, schedule: Q01DX005 (ip), vehicle: water 105 % of control | dose: 112.0 mg/kg/injection, schedule: Q01DX005 (ip), vehicle: water 105 % of control | dose: 225.0 mg/kg/injection, schedule: Q01DX005 (ip), vehicle: water 104 % of control

C=C1C(=O)OC2/C=C(\C)C(O)CCC(C)(O)CC(OC(=O)/C(C)=C/C)C12 (stereo not given)
inactive: dose: 7.5 mg/kg/injection, schedule: Q01DX009 (ip), vehicle: saline with Tween-80 104 % of control | dose: 15.0 mg/kg/injection, schedule: Q01DX009 (ip), vehicle: saline with Tween-80 98 % of control | dose: 30.0 mg/kg/injection, schedule: Q01DX009 (ip), vehicle: saline with Tween-80 104 % of control | dose: 60.0 mg/kg/injection, schedule: Q01DX009 (ip), vehicle: saline with Tween-80 108 % of control

CCOC(=O)c1cnc2ccc(C3CCCCC3)cc2c1Nc1ccc2c(c1)OCO2
inactive: [1] 99 % of control | [2] 91 % of control | [3] 91 % of control

CCCC(Sc1ccccc1)c1cc(OC)ccc1NC(C)=O (stereo not given)
inactive: dose: 100.0 mg/kg/injection, schedule: Q01DX001 (ip), vehicle: saline with Tween-80 100 % of control | dose: 200.0 mg/kg/injection, schedule: Q01DX001 (ip), vehicle: saline with Tween-80 100 % of control | dose: 400.0 mg/kg/injection, schedule: Q01DX001 (ip), vehicle: saline with Tween-80 93 % of control

CC[N+](CC)(CC)Cc1ccccc1
inactive: dose: 6.25 mg/kg/injection, schedule: Q04DX003 (ip), vehicle: saline sonified 109 % of control | dose: 12.5 mg/kg/injection, schedule: Q04DX003 (ip), vehicle: saline sonified 109 % of control | dose: 25.0 mg/kg/injection, schedule: Q04DX003 (ip), vehicle: saline sonified 109 % of control

CC1(C)OC(=O)C(=CN(C2CCCCC2)C2CCCCC2)C(=O)O1
inactive: [9] 96 % of control | [10] 86 % of control

CC(C)(C)NC(=S)N/N=C/c1cc(Cl)cc(Cl)c1O
inactive: dose: 50.0 mg/kg/injection, schedule: Q01DX009 (ip), vehicle: saline with Tween-80 97 % of control | dose: 200.0 mg/kg/injection, schedule: Q01DX009 (ip), vehicle: saline with Tween-80 98 % of control

Cc1cccc(NC(=O)Nc2ccccc2Cl)n1
inactive: dose: 50.0 mg/kg/injection, schedule: Q01DX009 (ip), vehicle: Klucel (hydroxypropylcellulose) (HPC) 102 % of control | dose: 100.0 mg/kg/injection, schedule: Q01DX009 (ip), vehicle: Klucel (hydroxypropylcellulose) (HPC) 96 % of control | dose: 200.0 mg/kg/injection, schedule: Q01DX009 (ip), vehicle: Klucel (hydroxypropylcellulose) (HPC) 93 % of control

COc1cc2c(c3c1c(=O)c1cccc(F)c1n3C)C=CC(C)(C)O2
inactive: dose: 25.0 mg/kg/injection, schedule: Q01DX005 (ip), vehicle: Klucel (hydroxypropylcellulose) (HPC) 113 % of control | [6] 109 % of control and 110 % of control | [7] 120 % of control

CC1OC(c2ccc3c(c2O)C(=O)c2ccc(CC(C)(O)CC(=O)O)cc2C3=O)CC(O)C1O (stereo not given)
inactive: dose: 12.5 mg/kg/injection, schedule: Q01DX005 (ip), vehicle: saline with Tween-80 90 % of control | [8] 93 % of control | [4] 96 % of control | dose: 100.0 mg/kg/injection, schedule: Q01DX005 (ip), vehicle: suspension in saline 110 % of control | dose: 200.0 mg/kg/injection, schedule: Q01DX005 (ip), vehicle: suspension in saline 101 % of control

C=C(C)C1CC=C(C)/C(=N/NC(=O)c2ccccn2)C1 (stereo not given)
inactive: dose: 100.0 mg/kg/injection, schedule: Q04DX003 (ip), vehicle: Klucel (hydroxypropylcellulose) (HPC) 111 % of control | dose: 200.0 mg/kg/injection, schedule: Q04DX003 (ip), vehicle: Klucel (hydroxypropylcellulose) (HPC) 94 % of control | dose: 400.0 mg/kg/injection, schedule: Q04DX003 (ip), vehicle: Klucel (hydroxypropylcellulose) (HPC) 94 % of control

COc1ccc(C2COc3cc4c(cc3C2)OCO4)cc1 (stereo not given)
inactive: [1] 98 % of control | [2] 98 % of control | [3] 96 % of control

N/C(=C\c1cnc2ccccc2n1)c1ccccc1Cl
inactive: [9] 91 % of control | [10] 89 % of control

CCN(CC)C1=Nc2ccccc2N(c2ccccc2)C(N2CCCCC2)=C1
inactive: dose: 12.5 mg/kg/injection, schedule: Q04DX002 (ip), vehicle: Klucel (hydroxypropylcellulose) (HPC) 99 % of control | dose: 25.0 mg/kg/injection, schedule: Q04DX002 (ip), vehicle: Klucel (hydroxypropylcellulose) (HPC) 99 % of control | dose: 50.0 mg/kg/injection, schedule: Q04DX002 (ip), vehicle: Klucel (hydroxypropylcellulose) (HPC) 101 % of control

COc1ccc(-n2cc(-c3ccc(Cl)cc3)c3c(N)ncnc32)cc1
inactive: [1] 105 % of control | [2] 94 % of control | [3] 86 % of control

CC[N+](CC)(CC)CCOc1nc(OCC[N+](CC)(CC)CC)nc(OCC[N+](CC)(CC)CC)n1
inactive: dose: 6.25 mg/kg/injection, schedule: Q01DX009 (ip), vehicle: saline 100 % of control | dose: 12.5 mg/kg/injection, schedule: Q01DX009 (ip), vehicle: saline 100 % of control | dose: 25.0 mg/kg/injection, schedule: Q01DX009 (ip), vehicle: saline 100 % of control
